Laboratory results reported in patent US20210179578A1, “OX1 ANTAGONISTS” (Heptares Therapeutics Limited, priority 2017, published 2021).

Experiments:
human OX1 receptor = target: T1, human OX1 receptor (Homo sapiens, UniProt O43613); test: IPone accumulation assay, CHO cells expressing OX1 (antagonism of orexin A); format: cell-based; conditions: IPone accumulation, CHO human OX1, orexin A EC80 challenge (~20 nM); read-out: fpKb average OX1 (converted)
T1 sequence (O43613 1-425): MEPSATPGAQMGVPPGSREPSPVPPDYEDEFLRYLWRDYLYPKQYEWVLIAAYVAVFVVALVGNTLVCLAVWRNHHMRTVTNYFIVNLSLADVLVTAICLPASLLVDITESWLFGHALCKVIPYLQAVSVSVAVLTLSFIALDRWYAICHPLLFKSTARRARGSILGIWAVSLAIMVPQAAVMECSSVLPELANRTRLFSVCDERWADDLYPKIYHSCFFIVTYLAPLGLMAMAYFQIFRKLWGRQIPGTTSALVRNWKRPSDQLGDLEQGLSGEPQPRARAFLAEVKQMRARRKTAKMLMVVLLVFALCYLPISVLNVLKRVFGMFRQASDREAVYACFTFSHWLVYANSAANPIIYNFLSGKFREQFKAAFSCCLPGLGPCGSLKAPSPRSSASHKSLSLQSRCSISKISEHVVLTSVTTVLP
Method: Generation of CHO stable cell lines expressing the human OX1R and OX2R. Stable cell lines for the human OX1R and OX2R receptors were generated through the transfection of CHO cells using the transfection reagent Genejuice (Novagen number 70967) and cDNA coding for either the human OX1R or OX2R. Cells were cultured in Sigma Nutrient Mixture F-12 Ham media (catalog number N6658) supplemented with 10% heat-inactivated FBS. Forty-eight hours after transfection, cells were harvested and placed under geneticin selection by culturing in Sigma Nutrient Mixture F-12 Ham media supplemented with 10% heat-inactivated FBS and geneticin (ThermoFisher Catalog number: 10131035). Selection of the final stable clone for each receptor was made on the basis of receptor expression, assay signal to noise and robustness though increasing passage. Selected clones for the human OX1R and OX2R were then frozen down into liquid nitrogen using Cell Freezing Medium-DMSO (Sigma-Aldrich catalog number: C6164). IPone accumulation assay. A CHO cell line stably expressing either human OX1 or OX2 receptor was used with the IPone HTRF assay kit (CisBio: Part #62[…]) to measure receptor activation. The assay was optimised to measure the ability (potency; fpKb) of antagonists to reduce agonist (orexin A)-induced inositol phosphate turnover. Briefly, cells were plated onto half area 96-well white walled plates at a density of 12,500 cells/well. Sixteen hours post-plating cell growth media was replaced with antagonist concentration-response curve diluted in stimulation buffer (supplied with the kit). Cells were incubated in a humidified incubator (37° C.) for 30 min before an EC80 challenge concentration ( 20 nM (OX1) and 40 nM (OX2)) of orexin A (Tocris catalogue number 1455). After 30 min stimulation in a humidified incubator (37° C.) the assay was terminated by the addition of detection mixture as per manufacturer's instructions. The concentration of compound which reduced orexin-A stimulated turnover of inositol phosphates by 50% (IC50) was calculated by fitting to a four parameter sigmoidal dose response curve. The IC50 values were converted to fpKB values using the orexin A pEC50 value estimated on each plate as well as the challenge concentration interpolated from the orexin A control curve.

human OX2 receptor = target: T2, human OX2 receptor (Homo sapiens, UniProt O43614); test: IPone accumulation assay, CHO cells expressing OX2 (antagonism of orexin A); format: cell-based; conditions: CHO human OX2, orexin A EC80 challenge (40 nM), read-out: fpKb average OX2 (converted)
T2 sequence (O43614 1-444): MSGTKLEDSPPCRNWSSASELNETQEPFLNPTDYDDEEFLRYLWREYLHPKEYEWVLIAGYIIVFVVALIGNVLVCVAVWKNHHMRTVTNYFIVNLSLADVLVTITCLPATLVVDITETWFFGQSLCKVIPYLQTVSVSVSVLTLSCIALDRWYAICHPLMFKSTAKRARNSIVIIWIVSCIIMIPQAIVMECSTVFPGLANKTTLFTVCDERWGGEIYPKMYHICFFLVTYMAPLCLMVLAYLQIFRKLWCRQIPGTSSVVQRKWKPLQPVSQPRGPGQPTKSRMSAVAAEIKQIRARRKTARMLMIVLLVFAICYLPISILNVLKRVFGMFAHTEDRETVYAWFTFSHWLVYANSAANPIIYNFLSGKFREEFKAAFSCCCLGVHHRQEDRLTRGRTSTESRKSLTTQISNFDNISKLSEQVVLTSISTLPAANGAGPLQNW
Method: Generation of CHO stable cell lines expressing the human OX1R and OX2R. Stable cell lines for the human OX1R and OX2R receptors were generated through the transfection of CHO cells using the transfection reagent Genejuice (Novagen number 70967) and cDNA coding for either the human OX1R or OX2R. Cells were cultured in Sigma Nutrient Mixture F-12 Ham media (catalog number N6658) supplemented with 10% heat-inactivated FBS. Forty-eight hours after transfection, cells were harvested and placed under geneticin selection by culturing in Sigma Nutrient Mixture F-12 Ham media supplemented with 10% heat-inactivated FBS and geneticin (ThermoFisher Catalog number: 10131035). Selection of the final stable clone for each receptor was made on the basis of receptor expression, assay signal to noise and robustness though increasing passage. Selected clones for the human OX1R and OX2R were then frozen down into liquid nitrogen using Cell Freezing Medium-DMSO (Sigma-Aldrich catalog number: C6164).
IPone accumulation assay. A CHO cell line stably expressing either human OX1 or OX2 receptor was used with the IPone HTRF assay kit (CisBio: Part #62IPAPEJ) to measure receptor activation. The assay was optimised to measure the ability (potency; fpKb) of antagonists to reduce agonist (orexin A)-induced inositol phosphate turnover. Briefly, cells were plated onto half area 96-well white walled plates at a density of 12,500 cells/well. Sixteen hours post-plating cell growth media was replaced with antagonist concentration-response curve diluted in stimulation buffer (supplied with the kit). Cells were incubated in a humidified incubator (37° C.) for 30 min before an EC80 challenge concentration (˜20 nM (OX1) and 40 nM (OX2)) of orexin A (Tocris catalogue number 1455). After 30 min stimulation in a humidified incubator (37° C.) the assay was terminated by the addition of detection mixture as per manufacturer's instructions. The concentration of compound which reduced orexin-A stimulated turnover of inositol phosphates by 50% (IC50) was calculated by fitting to a four parameter sigmoidal dose response curve. The IC50 values were converted to fpKB values using the orexin A pEC50 value estimated on each plate as well as the challenge concentration interpolated from the orexin A control curve.

| Kb (human OX1 receptor) | Kb (human OX2 receptor) | Compound |
| --- | --- | --- |
| 63.1 nM | > 631 nM | Cc1ncc(N2CCc3c(F)cccc3N(Cc3c(F)cc(Br)cc3F)C2=O)cc1C(C)(F)F [Example 32, 1-(4-bromo-2,6-difluorobenzyl)-3-[5-(1,1-difluoroethyl)-6-methylpyridin-3-yl]-6-fluoro-1,3,4,5-tetrahydro-2H-1,3-benzodiazepin-2-one] |
| 15.8 nM | 1000 nM | COCc1cc(F)c(CN2C(=O)N(c3cnc(C)c(C(C)(F)F)c3)CCc3c(F)cccc32)c(F)c1 [Example 33, 3-[5-(1,1-difluoroethyl)-6-methylpyridin-3-yl]-1-[2,6-difluoro-4-(methoxymethyl)benzyl]-6-fluoro-1,3,4,5-tetrahydro-2H-1,3-benzodiazepin-2-one] |
| 79.4 nM | > 2510 nM | CCCc1cc(F)c(CN2C(=O)N(c3cnc(C)c(C(C)(F)F)c3)CCc3c(F)cccc32)c(F)c1 [Example 34, 3-[5-(1,1-difluoroethyl)-6-methylpyridin-3-yl]-1-(2,6-difluoro-4-propylbenzyl)-6-fluoro-1,3,4,5-tetrahydro-2H-1,3-benzodiazepin-2-one] |

Continued, compound first:

| Compound | Kb (human OX1 receptor) | Kb (human OX2 receptor) |
| --- | --- | --- |
| Cc1cc(C)c(S(C)(=O)=O)cc1N1CCc2ccccc2N(Cc2c(F)cc(OC(C)C)cc2F)C1=O [Example 30, 1-[2,6-difluoro-4-(propan-2-yloxy)benzyl]-3-[2,4-dimethyl-5-(methylsulfonyl)phenyl]-1,3,4,5-tetrahydro-2H-1,3-benzodiazepin-2-one] | 39.8 nM | 794 nM |
| Cc1cc(C)c(S(C)(=O)=O)cc1N1CCc2c(F)cccc2N(Cc2c(F)cc(Br)cc2F)C1=O [Example 31, 1-(4-bromo-2,6-difluorobenzyl)-3-[2,4-dimethyl-5-(methylsulfonyl)phenyl]-6-fluoro-1,3,4,5-tetrahydro-2H-1,3-benzodiazepin-2-one] | 20 nM | > 316 nM |
| Cc1ncc(N2CCc3c(F)cccc3N(Cc3c(F)cc(Br)cc3F)C2=O)cc1OC(F)F [Example 37, 1-(4-bromo-2,6-difluorobenzyl)-3-[5-(difluoromethoxy)-6-methylpyridin-3-yl]-6-fluoro-1,3,4,5-tetrahydro-2H-1,3-benzodiazepin-2-one] | 20 nM | > 3980 nM |
